# Measurements reported in PMC2797576 (Biochemistry, 2009).
# Marks after values point to notes of the source that are not given here.
# Legend:
# [1] = biological target: E. coli D-3-phosphoglycerate dehydrogenase (PGDH), native enzyme (Escherichia coli, UniProt P0A9T0); assay: Steady-state inhibition of enzymatic activity of native PGDH by L-serine; format: biochemical
# [2] = biological target: T1, W139F-E360W PGDH (Escherichia coli, UniProt P0A9T0, E360W/W139F); assay: Steady-state inhibition of enzymatic activity of W139F-E360W PGDH by L-serine; format: biochemical, E. coli; settings: W139F-E360W mutant
# [3] = biological target: T1, W139F-E360W PGDH; assay: Steady-state serine binding by tryptophan fluorescence quenching titration; parameters: species or system E. coli; settings: 2.5 μM enzyme subunits, fit to Hill equation (eq 11)
# [4] = biological target: E. coli PGDH (native, free of bound NADH) (Escherichia coli, UniProt P0A9T0); assay: Pre-steady-state stopped-flow analysis of NADH binding; settings: saturating L-serine versus serine absent
# [5] = biological target: T1, W139F-E360W PGDH; assay: Stopped-flow transient kinetics of L-serine binding; parameters: species or system E. coli; settings: for k3: estimated from Figure 9; for k2: forward rate constant of conformational change after binding; for k−3: reverse rate constant of conformational change before binding
smiles,measurement,setting,value
N[C@@H](CO)C(=O)O [L-serine],Hill coefficient for inhibition of enzymatic activity,[1],1.9 ± 0.1
same,Hill coefficient for inhibition of enzymatic activity,[2],2.2 ± 0.1
same,K0.5 for fluorescence quenching,[3],13.6 ± 0.5
same,"Increase in the Kd for NADH binding caused by serine, first set of sites",[4],15 fold
same,"Increase in the Kd for NADH binding caused by serine, other set of sites",[4],5 fold
same,k3,"[5]; kobs1, printed >0–20",(>0–20 s^−1) ^b
same,k2,[5]; kobs1,61 ± 4 s⁻¹
same,k−3,[5]; kobs1,88 ± 7 s⁻¹
same,k3,"[5]; kobs2, printed >0–2",(>0–2 s^−1) ^b
same,k2,[5]; kobs2,161 ± 18 s⁻¹
same,k−3,[5]; kobs2,166 ± 22 s⁻¹
